Measured values from US11077115B2, “Rorgamma modulators and uses thereof” (Genfit, priority 2017, dated 2021).
Where a name gives a salt, the structure may show the parent alone.

| SMILES | melting point [°C] |
| --- | --- |
| Cc1ccc(C(NC(=O)C2(c3cnc(N4CCS(=O)(=O)CC4)nc3)CC2)c2ccc(C)o2)c(C)c1 (centres unmarked) (as salt: HCl) [Cpd. 48, N-[(2,4-dimethylphenyl)(5-methylfuran-2-yl)methyl]-1-[2-(1,1-dioxo-1-thiomorpholin-4-yl)pyrimidin-5-yl]cyclopropane-1-carboxamide] | 82 |
| Cc1ccc(C(NC(=O)Cc2cnc(N3CCS(=O)(=O)CC3)nc2)c2ccc(Cl)cc2Cl)o1 (centres unmarked) (as salt: HCl) [Cpd. 50, N-[(2,4-dichlorophenyl)(5-methylfuran-2-yl)methyl]-2-[2-(1,1-dioxo-1-thiomorpholin-4-yl)pyrimidin-5-yl]acetamide] | 215 |
| Cc1ccc(C(NC(=O)C2(c3cnc(N4CCS(=O)(=O)CC4)nc3)CC2)c2ccc(C)o2)c(Cl)c1 (centres unmarked) (as salt: HCl) [Cpd. 52, N-[(2-chloro-4-methylphenyl)(5-methylfuran-2-yl)methyl]-1-[2-(1,1-dioxo-1-thiomorpholin-4-yl)pyrimidin-5-yl]cyclopropane-1-carboxamide] | 98 |
| Cc1ccc(C(NC(=O)C2(c3cnc(N4CCS(=O)(=O)CC4)nc3)CC2)c2ccc(Cl)cc2C)o1 (centres unmarked) (as salt: HCl) [Cpd. 53, N-[(4-chloro-2-methylphenyl)(5-methylfuran-2-yl)methyl]-1-[2-(1,1-dioxo-1-thiomorpholin-4-yl)pyrimidin-5-yl]cyclopropane-1-carboxamide] | 162 |
| Cc1ccc(C(NC(=O)C2(c3cnc(N4CCS(=O)(=O)CC4)nc3)CC2)c2ccc(Cl)cc2Cl)o1 (centres unmarked) (as salt: HCl) [Cpd. 54, N-[(2,4-dichlorophenyl)(5-methylfuran-2-yl)methyl]-1-[2-(1,1-dioxo-1-thiomorpholin-4-yl)pyrimidin-5-yl]cyclopropane-1-carboxamide] | 145 |
| COc1ccc(C(NC(=O)C2(c3cnc(N4CCS(=O)(=O)CC4)nc3)CC2)c2ccc(C)o2)c(C)c1 (centres unmarked) (as salt: HCl) [Cpd. 57, 1-[2-(1,1-dioxo-1-thiomorpholin-4-yl)pyrimidin-5-yl]-N-[(4-methoxy-2-methylphenyl)(5-methylfuran-2-yl)methyl]cyclopropane-1-carboxamide] | 101 |
| COc1ccc(C2(C(=O)NC(c3ccc(C)o3)c3ccc(C)cc3C)CC2)cc1N1CCS(=O)(=O)CC1 (centres unmarked) (as salt: HCl) [Cpd. 69, N-[(2,4-dimethylphenyl)(5-methylfuran-2-yl)methyl]-1-[3-(1,1-dioxo-1-thiomorpholin-4-yl)-4-methoxyphenyl]cyclopropane-1-carboxamide] | 174 |
| Cc1ccc(C(NC(=O)C2(c3ncc(N4CCS(=O)(=O)CC4)cc3C)CC2)c2ccc(C)o2)c(C)c1 (centres unmarked) (as salt: HCl) [Cpd. 72, N-[(2,4-dimethylphenyl)(5-methylfuran-2-yl)methyl]-1-[5-(1,1-dioxo-1-thiomorpholin-4-yl)-3-methylpyridin-2-yl]cyclopropane-1-carboxamide] | 87 |

Second part, the molecule after the results:

| melting point [°C] | SMILES |
| --- | --- |
| 208 | Cc1ccc(C(NC(=O)Cc2cnc(N3CCS(=O)(=O)CC3)nc2)c2ccc(C)o2)c(Cl)c1 (centres unmarked) (as salt: HCl) [Cpd. 51, N-[(2-chloro-4-methylphenyl)(5-methylfuran-2-yl)methyl]-2-[2-(1,1-dioxo-1-thiomorpholin-4-yl)pyrimidin-5-yl]acetamide] |
| 87 | Cc1ccc(C(NC(=O)C2(c3ccc(N4CCS(=O)(=O)CC4)cc3)CCC2)c2ccc(C)o2)c(N2CCCCC2)c1 (centres unmarked) (as salt: HCl) [Cpd. 55, 1-[4-(1,1-dioxo-1-thiomorpholin-4-yl)phenyl]-N-{[4-methyl-2-(piperidin-1-yl)phenyl](5-methylfuran-2-yl)methyl}cyclobutane-1-carboxamide] |
| 105 | Cc1ccc(C(NC(=O)Cc2ccc(N3CCS(=O)(=O)CC3)c(O)c2)c2ccc(C)o2)c(N2CCCCC2)c1 (centres unmarked) (as salt: HCl) [Cpd. 61, 2-[4-(1,1-dioxo-1-thiomorpholin-4-yl)-3-hydroxyphenyl]-N-{[4-methyl-2-(piperidin-1-yl)phenyl](5-methylfuran-2-yl)methyl}acetamide] |
| 87 | COCc1ccc(CC(=O)NC(c2ccc(C)o2)c2ccc(C)cc2N2CCCCC2)cc1N1CCS(=O)(=O)CC1 (centres unmarked) (as salt: HCl) [Cpd. 62, 2-[3-(1,1-dioxo-1-thiomorpholin-4-yl)-4-(methoxymethyl)phenyl]-N-{[4-methyl-2-(piperidin-1-yl)phenyl](5-methylfuran-2-yl)methyl}acetamide] |
| 100 | Cc1ccc(C(NC(=O)Cc2ccc(CO)c(N3CCS(=O)(=O)CC3)c2)c2ccc(C)o2)c(N2CCCCC2)c1 (centres unmarked) (as salt: HCl) [Cpd. 63, 2-[3-(1,1-dioxo-1-thiomorpholin-4-yl)-4-(hydroxymethyl)phenyl]-N-{[4-methyl-2-(piperidin-1-yl)phenyl](5-methylfuran-2-yl)methyl}acetamide] |
| 99 | Cc1ccc(C(NC(=O)Cc2ncc(N3CCS(=O)(=O)CC3)cn2)c2ccc(C)o2)c(N2CCCCC2)c1 (centres unmarked) (as salt: HCl) [Cpd. 65, 2-[5-(1,1-dioxo-1-thiomorpholin-4-yl)pyrimidin-2-yl]-N-{[4-methyl-2-(piperidin-1-yl)phenyl](5-methylfuran-2-yl)methyl}acetamide] |
| 76 | Cc1ccc(C(NC(=O)C2(c3ccc(N4CCS(=O)(=O)CC4)cc3)CC2)c2ccc(Cl)o2)c(C)c1 (centres unmarked) (as salt: HCl) [Cpd. 66, N-[(5-chlorofuran-2-yl)(2,4-dimethylphenyl)methyl]-1-[4-(1,1-dioxo-1-thiomorpholin-4-yl)phenyl]cyclopropane-1-carboxamide] |
| 157 | Cc1ccc(C(NC(=O)C2(c3ccc(N4CCS(=O)(=O)CC4)cc3)CC2)c2ccc(Cl)o2)cc1 (centres unmarked) (as salt: HCl) [Cpd. 67, N-[(5-chlorofuran-2-yl)(4-methylphenyl)methyl]-1-[4-(1,1-dioxo-1-thiomorpholin-4-yl)phenyl]cyclopropane-1-carboxamide] |
| 72 | Cc1ccc(C(NC(=O)C2(c3cccc(N4CCS(=O)(=O)CC4)c3)CC2)c2ccc(C)o2)c(C)c1 (centres unmarked) (as salt: HCl) [Cpd. 68, N-[(2,4-dimethylphenyl)(5-methylfuran-2-yl)methyl]-1-[3-(1,1-dioxo-1-thiomorpholin-4-yl)phenyl]cyclopropane-1-carboxamide] |
| 86 | Cc1ccc(C(NC(=O)C2(c3cc(N4CCS(=O)(=O)CC4)ccc3C)CC2)c2ccc(C)o2)c(C)c1 (centres unmarked) (as salt: HCl) [Cpd. 70, N-[(2,4-dimethylphenyl)(5-methylfuran-2-yl)methyl]-1-[5-(1,1-dioxo-1-thiomorpholin-4-yl)-2-methylphenyl]cyclopropane-1-carboxamide] |
| 74 | Cc1ccc(C(NC(=O)C2(c3ccc(N4CCS(=O)(=O)CC4)c(C)n3)CC2)c2ccc(C)o2)c(C)c1 (centres unmarked) (as salt: HCl) [Cpd. 71, N-[(2,4-dimethylphenyl)(5-methylfuran-2-yl)methyl]-1-[5-(1,1-dioxo-1-thiomorpholin-4-yl)-6-methylpyridin-2-yl]cyclopropane-1-carboxamide] |
| 71 | Cc1ccc(C(NC(=O)C2(c3ccc(N4CCS(=O)(=O)CC4)cn3)CC2)c2ccc(C)o2)c(C)c1 (centres unmarked) (as salt: HCl) [Cpd. 73, N-[(2,4-dimethylphenyl)(5-methylfuran-2-yl)methyl]-1-[5-(1,1-dioxo-1-thiomorpholin-4-yl)pyridin-2-yl]cyclopropane-1-carboxamide] |
